Reference: PubChem BioAssay AID1963837 (Molecular Pharmacology Branch, DTP, NCI, 2024)

Tested on: 843126-344-R-J1-PDC complex spheroid viability
Assay: Anticancer human tumor 843126-344-R-J1-PDC patient-derived melanoma cell line growth inhibition [POLQ]
Settings: second compound 0.0316 µM; first compound 3.16 µM; stronger effect = lower value
In short: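 Three-cell-type spheroids modelling solid tumor plus stroma served as the readout system; POL inhibitors were tested individually and in combination, concentration ranges set by clinical Cmax where known.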
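Also: spheroids exposed to drugs for seven days before readout.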

In order of falling viability, T/C:
1. COc1cc2cc(C(=O)CCC(=O)O)sc2cc1OC + Nc1ccc(C#CCN(C(=O)Cc2ncc(C(F)(F)F)cc2C(F)(F)F)c2ccc(F)cc2)nn1  90.2%
2. O=C(Nc1ccc(O)c(NS(=O)(=O)c2ccc(F)cc2)c1)c1ccc(-c2ccccc2)cc1 + Nc1ccc(C#CCN(C(=O)Cc2ncc(C(F)(F)F)cc2C(F)(F)F)c2ccc(F)cc2)nn1  82.2%
3. CCc1cc2c(N3CCc4c(cc(Cn5ccnc5)cc4-c4cn(C)nc4C(F)(F)F)C3=O)cc(C)nc2c(OC)n1 + Nc1ccc(C#CCN(C(=O)Cc2ncc(C(F)(F)F)cc2C(F)(F)F)c2ccc(F)cc2)nn1  73.2%

Same assay, conditions: second compound 0.0316 µM; first compound 10 µM; stronger effect = lower value

In order of rising viability, T/C:
1. CC1COCCN1c1cc(C2(O)CC3CCC(C2)O3)c2cnn(-c3ccn[nH]3)c2n1 (stereo not drawn) + Nc1ccc(C#CCN(C(=O)Cc2ncc(C(F)(F)F)cc2C(F)(F)F)c2ccc(F)cc2)nn1  20.2%
2. CCc1cc2c(N3CCc4c(cc(Cn5ccnc5)cc4-c4cn(C)nc4C(F)(F)F)C3=O)cc(C)nc2c(OC)n1 + Nc1ccc(C#CCN(C(=O)Cc2ncc(C(F)(F)F)cc2C(F)(F)F)c2ccc(F)cc2)nn1  58.8%
3. O=C(Nc1ccc(O)c(NS(=O)(=O)c2ccc(F)cc2)c1)c1ccc(-c2ccccc2)cc1 + Nc1ccc(C#CCN(C(=O)Cc2ncc(C(F)(F)F)cc2C(F)(F)F)c2ccc(F)cc2)nn1  73.6%
4. C#Cc1c(F)ccc2cc(O)cc(-c3ncc4c(N5CC6CCC(C5)N6)nc(OCC56CCCN5CC(F)C6)nc4c3F)c12 (stereo not drawn) + Nc1ccc(C#CCN(C(=O)Cc2ncc(C(F)(F)F)cc2C(F)(F)F)c2ccc(F)cc2)nn1  76.5%
5. COc1cc2cc(C(=O)CCC(=O)O)sc2cc1OC + Nc1ccc(C#CCN(C(=O)Cc2ncc(C(F)(F)F)cc2C(F)(F)F)c2ccc(F)cc2)nn1  89.2%

Same assay, conditions: second compound 0.1 µM; first compound 0.0316 µM; stronger effect = lower value

In order of rising viability, T/C:
1. CC1COCCN1c1cc(C2(O)CC3CCC(C2)O3)c2cnn(-c3ccn[nH]3)c2n1 (stereo not drawn) + Nc1ccc(C#CCN(C(=O)Cc2ncc(C(F)(F)F)cc2C(F)(F)F)c2ccc(F)cc2)nn1  74.5%
2. COc1cc2cc(C(=O)CCC(=O)O)sc2cc1OC + Nc1ccc(C#CCN(C(=O)Cc2ncc(C(F)(F)F)cc2C(F)(F)F)c2ccc(F)cc2)nn1  77.8%
3. O=C(Nc1ccc(O)c(NS(=O)(=O)c2ccc(F)cc2)c1)c1ccc(-c2ccccc2)cc1 + Nc1ccc(C#CCN(C(=O)Cc2ncc(C(F)(F)F)cc2C(F)(F)F)c2ccc(F)cc2)nn1  91.6%
4. CCc1cc2c(N3CCc4c(cc(Cn5ccnc5)cc4-c4cn(C)nc4C(F)(F)F)C3=O)cc(C)nc2c(OC)n1 + Nc1ccc(C#CCN(C(=O)Cc2ncc(C(F)(F)F)cc2C(F)(F)F)c2ccc(F)cc2)nn1  97.5%
5. C#Cc1c(F)ccc2cc(O)cc(-c3ncc4c(N5CC6CCC(C5)N6)nc(OCC56CCCN5CC(F)C6)nc4c3F)c12 (stereo not drawn) + Nc1ccc(C#CCN(C(=O)Cc2ncc(C(F)(F)F)cc2C(F)(F)F)c2ccc(F)cc2)nn1  106%

Same assay, conditions: second compound 0.1 µM; first compound 0.1 µM; stronger effect = lower value

In order of falling viability, T/C:
1. C#Cc1c(F)ccc2cc(O)cc(-c3ncc4c(N5CC6CCC(C5)N6)nc(OCC56CCCN5CC(F)C6)nc4c3F)c12 (stereo not drawn) + Nc1ccc(C#CCN(C(=O)Cc2ncc(C(F)(F)F)cc2C(F)(F)F)c2ccc(F)cc2)nn1  110%
2. COc1cc2cc(C(=O)CCC(=O)O)sc2cc1OC + Nc1ccc(C#CCN(C(=O)Cc2ncc(C(F)(F)F)cc2C(F)(F)F)c2ccc(F)cc2)nn1  103%
3. O=C(Nc1ccc(O)c(NS(=O)(=O)c2ccc(F)cc2)c1)c1ccc(-c2ccccc2)cc1 + Nc1ccc(C#CCN(C(=O)Cc2ncc(C(F)(F)F)cc2C(F)(F)F)c2ccc(F)cc2)nn1  102%
4. CCc1cc2c(N3CCc4c(cc(Cn5ccnc5)cc4-c4cn(C)nc4C(F)(F)F)C3=O)cc(C)nc2c(OC)n1 + Nc1ccc(C#CCN(C(=O)Cc2ncc(C(F)(F)F)cc2C(F)(F)F)c2ccc(F)cc2)nn1  99.5%
5. CC1COCCN1c1cc(C2(O)CC3CCC(C2)O3)c2cnn(-c3ccn[nH]3)c2n1 (stereo not drawn) + Nc1ccc(C#CCN(C(=O)Cc2ncc(C(F)(F)F)cc2C(F)(F)F)c2ccc(F)cc2)nn1  79.2%

Same assay, conditions: second compound 0.1 µM; first compound 0.316 µM; stronger effect = lower value

In order of falling viability, T/C:
1. C#Cc1c(F)ccc2cc(O)cc(-c3ncc4c(N5CC6CCC(C5)N6)nc(OCC56CCCN5CC(F)C6)nc4c3F)c12 (stereo not drawn) + Nc1ccc(C#CCN(C(=O)Cc2ncc(C(F)(F)F)cc2C(F)(F)F)c2ccc(F)cc2)nn1  96.7%
2. COc1cc2cc(C(=O)CCC(=O)O)sc2cc1OC + Nc1ccc(C#CCN(C(=O)Cc2ncc(C(F)(F)F)cc2C(F)(F)F)c2ccc(F)cc2)nn1  92%
3. CCc1cc2c(N3CCc4c(cc(Cn5ccnc5)cc4-c4cn(C)nc4C(F)(F)F)C3=O)cc(C)nc2c(OC)n1 + Nc1ccc(C#CCN(C(=O)Cc2ncc(C(F)(F)F)cc2C(F)(F)F)c2ccc(F)cc2)nn1  89.1%
4. O=C(Nc1ccc(O)c(NS(=O)(=O)c2ccc(F)cc2)c1)c1ccc(-c2ccccc2)cc1 + Nc1ccc(C#CCN(C(=O)Cc2ncc(C(F)(F)F)cc2C(F)(F)F)c2ccc(F)cc2)nn1  82.2%
5. CC1COCCN1c1cc(C2(O)CC3CCC(C2)O3)c2cnn(-c3ccn[nH]3)c2n1 (stereo not drawn) + Nc1ccc(C#CCN(C(=O)Cc2ncc(C(F)(F)F)cc2C(F)(F)F)c2ccc(F)cc2)nn1  51.6%

Same assay, conditions: second compound 0.1 µM; first compound 1 µM; stronger effect = lower value

In order of falling viability, T/C:
1. C#Cc1c(F)ccc2cc(O)cc(-c3ncc4c(N5CC6CCC(C5)N6)nc(OCC56CCCN5CC(F)C6)nc4c3F)c12 (stereo not drawn) + Nc1ccc(C#CCN(C(=O)Cc2ncc(C(F)(F)F)cc2C(F)(F)F)c2ccc(F)cc2)nn1  108%
2. COc1cc2cc(C(=O)CCC(=O)O)sc2cc1OC + Nc1ccc(C#CCN(C(=O)Cc2ncc(C(F)(F)F)cc2C(F)(F)F)c2ccc(F)cc2)nn1  102%
3. O=C(Nc1ccc(O)c(NS(=O)(=O)c2ccc(F)cc2)c1)c1ccc(-c2ccccc2)cc1 + Nc1ccc(C#CCN(C(=O)Cc2ncc(C(F)(F)F)cc2C(F)(F)F)c2ccc(F)cc2)nn1  85.4%
4. CCc1cc2c(N3CCc4c(cc(Cn5ccnc5)cc4-c4cn(C)nc4C(F)(F)F)C3=O)cc(C)nc2c(OC)n1 + Nc1ccc(C#CCN(C(=O)Cc2ncc(C(F)(F)F)cc2C(F)(F)F)c2ccc(F)cc2)nn1  82%
5. CC1COCCN1c1cc(C2(O)CC3CCC(C2)O3)c2cnn(-c3ccn[nH]3)c2n1 (stereo not drawn) + Nc1ccc(C#CCN(C(=O)Cc2ncc(C(F)(F)F)cc2C(F)(F)F)c2ccc(F)cc2)nn1  37.6%

Same assay, conditions: second compound 0.1 µM; first compound 3.16 µM; stronger effect = lower value

In order of rising viability, T/C:
1. CC1COCCN1c1cc(C2(O)CC3CCC(C2)O3)c2cnn(-c3ccn[nH]3)c2n1 (stereo not drawn) + Nc1ccc(C#CCN(C(=O)Cc2ncc(C(F)(F)F)cc2C(F)(F)F)c2ccc(F)cc2)nn1  31.9%
2. CCc1cc2c(N3CCc4c(cc(Cn5ccnc5)cc4-c4cn(C)nc4C(F)(F)F)C3=O)cc(C)nc2c(OC)n1 + Nc1ccc(C#CCN(C(=O)Cc2ncc(C(F)(F)F)cc2C(F)(F)F)c2ccc(F)cc2)nn1  79.7%
3. O=C(Nc1ccc(O)c(NS(=O)(=O)c2ccc(F)cc2)c1)c1ccc(-c2ccccc2)cc1 + Nc1ccc(C#CCN(C(=O)Cc2ncc(C(F)(F)F)cc2C(F)(F)F)c2ccc(F)cc2)nn1  89.1%
4. COc1cc2cc(C(=O)CCC(=O)O)sc2cc1OC + Nc1ccc(C#CCN(C(=O)Cc2ncc(C(F)(F)F)cc2C(F)(F)F)c2ccc(F)cc2)nn1  89.9%
5. C#Cc1c(F)ccc2cc(O)cc(-c3ncc4c(N5CC6CCC(C5)N6)nc(OCC56CCCN5CC(F)C6)nc4c3F)c12 (stereo not drawn) + Nc1ccc(C#CCN(C(=O)Cc2ncc(C(F)(F)F)cc2C(F)(F)F)c2ccc(F)cc2)nn1  103%

Same assay, conditions: second compound 0.1 µM; first compound 10 µM; stronger effect = lower value

In order of falling viability, T/C:
1. COc1cc2cc(C(=O)CCC(=O)O)sc2cc1OC + Nc1ccc(C#CCN(C(=O)Cc2ncc(C(F)(F)F)cc2C(F)(F)F)c2ccc(F)cc2)nn1  107%
2. C#Cc1c(F)ccc2cc(O)cc(-c3ncc4c(N5CC6CCC(C5)N6)nc(OCC56CCCN5CC(F)C6)nc4c3F)c12 (stereo not drawn) + Nc1ccc(C#CCN(C(=O)Cc2ncc(C(F)(F)F)cc2C(F)(F)F)c2ccc(F)cc2)nn1  84.5%
3. O=C(Nc1ccc(O)c(NS(=O)(=O)c2ccc(F)cc2)c1)c1ccc(-c2ccccc2)cc1 + Nc1ccc(C#CCN(C(=O)Cc2ncc(C(F)(F)F)cc2C(F)(F)F)c2ccc(F)cc2)nn1  64.8%
4. CCc1cc2c(N3CCc4c(cc(Cn5ccnc5)cc4-c4cn(C)nc4C(F)(F)F)C3=O)cc(C)nc2c(OC)n1 + Nc1ccc(C#CCN(C(=O)Cc2ncc(C(F)(F)F)cc2C(F)(F)F)c2ccc(F)cc2)nn1  58.2%
5. CC1COCCN1c1cc(C2(O)CC3CCC(C2)O3)c2cnn(-c3ccn[nH]3)c2n1 (stereo not drawn) + Nc1ccc(C#CCN(C(=O)Cc2ncc(C(F)(F)F)cc2C(F)(F)F)c2ccc(F)cc2)nn1  22%

Same assay, conditions: second compound 0.316 µM; first compound 0.0316 µM; stronger effect = lower value

In order of rising viability, T/C:
1. CC1COCCN1c1cc(C2(O)CC3CCC(C2)O3)c2cnn(-c3ccn[nH]3)c2n1 (stereo not drawn) + Nc1ccc(C#CCN(C(=O)Cc2ncc(C(F)(F)F)cc2C(F)(F)F)c2ccc(F)cc2)nn1  73.2%
2. CCc1cc2c(N3CCc4c(cc(Cn5ccnc5)cc4-c4cn(C)nc4C(F)(F)F)C3=O)cc(C)nc2c(OC)n1 + Nc1ccc(C#CCN(C(=O)Cc2ncc(C(F)(F)F)cc2C(F)(F)F)c2ccc(F)cc2)nn1  87.5%
3. COc1cc2cc(C(=O)CCC(=O)O)sc2cc1OC + Nc1ccc(C#CCN(C(=O)Cc2ncc(C(F)(F)F)cc2C(F)(F)F)c2ccc(F)cc2)nn1  96.1%
4. C#Cc1c(F)ccc2cc(O)cc(-c3ncc4c(N5CC6CCC(C5)N6)nc(OCC56CCCN5CC(F)C6)nc4c3F)c12 (stereo not drawn) + Nc1ccc(C#CCN(C(=O)Cc2ncc(C(F)(F)F)cc2C(F)(F)F)c2ccc(F)cc2)nn1  100%
5. O=C(Nc1ccc(O)c(NS(=O)(=O)c2ccc(F)cc2)c1)c1ccc(-c2ccccc2)cc1 + Nc1ccc(C#CCN(C(=O)Cc2ncc(C(F)(F)F)cc2C(F)(F)F)c2ccc(F)cc2)nn1  100%

Same assay, conditions: second compound 0.316 µM; first compound 0.1 µM; stronger effect = lower value

In order of rising viability, T/C:
1. CC1COCCN1c1cc(C2(O)CC3CCC(C2)O3)c2cnn(-c3ccn[nH]3)c2n1 (stereo not drawn) + Nc1ccc(C#CCN(C(=O)Cc2ncc(C(F)(F)F)cc2C(F)(F)F)c2ccc(F)cc2)nn1  69.9%
2. C#Cc1c(F)ccc2cc(O)cc(-c3ncc4c(N5CC6CCC(C5)N6)nc(OCC56CCCN5CC(F)C6)nc4c3F)c12 (stereo not drawn) + Nc1ccc(C#CCN(C(=O)Cc2ncc(C(F)(F)F)cc2C(F)(F)F)c2ccc(F)cc2)nn1  91.4%
3. O=C(Nc1ccc(O)c(NS(=O)(=O)c2ccc(F)cc2)c1)c1ccc(-c2ccccc2)cc1 + Nc1ccc(C#CCN(C(=O)Cc2ncc(C(F)(F)F)cc2C(F)(F)F)c2ccc(F)cc2)nn1  92.5%
4. COc1cc2cc(C(=O)CCC(=O)O)sc2cc1OC + Nc1ccc(C#CCN(C(=O)Cc2ncc(C(F)(F)F)cc2C(F)(F)F)c2ccc(F)cc2)nn1  94.2%
5. CCc1cc2c(N3CCc4c(cc(Cn5ccnc5)cc4-c4cn(C)nc4C(F)(F)F)C3=O)cc(C)nc2c(OC)n1 + Nc1ccc(C#CCN(C(=O)Cc2ncc(C(F)(F)F)cc2C(F)(F)F)c2ccc(F)cc2)nn1  97.4%

Same assay, conditions: second compound 0.316 µM; first compound 0.316 µM; stronger effect = lower value

In order of rising viability, T/C:
1. CC1COCCN1c1cc(C2(O)CC3CCC(C2)O3)c2cnn(-c3ccn[nH]3)c2n1 (stereo not drawn) + Nc1ccc(C#CCN(C(=O)Cc2ncc(C(F)(F)F)cc2C(F)(F)F)c2ccc(F)cc2)nn1  49.1%
2. CCc1cc2c(N3CCc4c(cc(Cn5ccnc5)cc4-c4cn(C)nc4C(F)(F)F)C3=O)cc(C)nc2c(OC)n1 + Nc1ccc(C#CCN(C(=O)Cc2ncc(C(F)(F)F)cc2C(F)(F)F)c2ccc(F)cc2)nn1  77.6%
3. C#Cc1c(F)ccc2cc(O)cc(-c3ncc4c(N5CC6CCC(C5)N6)nc(OCC56CCCN5CC(F)C6)nc4c3F)c12 (stereo not drawn) + Nc1ccc(C#CCN(C(=O)Cc2ncc(C(F)(F)F)cc2C(F)(F)F)c2ccc(F)cc2)nn1  84.5%
4. O=C(Nc1ccc(O)c(NS(=O)(=O)c2ccc(F)cc2)c1)c1ccc(-c2ccccc2)cc1 + Nc1ccc(C#CCN(C(=O)Cc2ncc(C(F)(F)F)cc2C(F)(F)F)c2ccc(F)cc2)nn1  98.8%
5. COc1cc2cc(C(=O)CCC(=O)O)sc2cc1OC + Nc1ccc(C#CCN(C(=O)Cc2ncc(C(F)(F)F)cc2C(F)(F)F)c2ccc(F)cc2)nn1  104%
